Here are results for one compound from article PMC4319564 (Journal of materials chemistry. B, Materials for biology …, 2014).

This test relates to PTX-resistant KB-V1 cervical cancer cells. Put plainly: Cytotoxicity, SRB assay. Format: cell-based. The following applies: 48 h incubation, 0.01-1000 nM, triplicate. On the technique in general: Sulforhodamine B stains cellular protein and so reports cell mass.

On to `CC(=O)O[C@H]1C(=O)[C@@]2(C)[C@H]([C@H](OC(=O)c3ccccc3)[C@]3(O)C[C@H](OC(=O)[C@H](O)[C@@H](NC(=O)c4ccccc4)c4ccccc4)C(C)=C1C3(C)C)[C@]1(OC(C)=O)CO[C@@H]1C[C@@H]2O` [PTX, paclitaxel], for which the “Toxicity (in words)” value is on record as “do not exert any toxicity”.
